Usually IC50 stands for the concentration at which inhibition is half-maximal. The Ki is the equilibrium dissociation constant of an inhibitor or competing ligand from its target.

In one data set the target is T1, PDE5 (Cavia porcellus, UniProt H0VD23).
T1 construct: partially separated from guinea pig lungs and hearts; from tissue; host or cells: guinea pig lungs and hearts
As to the kind of experiment: Inhibition of PDE5 activity (two-step radioenzymatic assay). It counts as biochemical, guinea pig. As to conditions: mean ± SEM (n); read-out: IC50 on PDE isozyme 5. The protocol:
Activities of PDE1–5, partially separated from guinea pig lungs and hearts according to the method described by Ko et al., were measured with a two-step procedure according to the method of Thompson and Appleman, using cAMP with [^3H]-cAMP or cGMP with [^3H]-cGMP as substrates. The enzyme pμreparation (25 μL) was incubated for 30 min at 37°C in a total assay volume of […] containing 50 mM Tris-HCl (pH 7.4), 3 mM MgCl2, 1 mM dithiothreitol, 0.05% BSA, 1 μM cAMP with 0.2 μCi [^3H]-cAMP as a substrate alone or in the presence of 0.1 units calmodulin with 10 μM CaCl2 or 5 μM cGMP, and 1 μM cGMP with 0.2 μCi [^3H]-cGMP as another substrate alone or in the presence of 0.1 units calmodulin with 10 μM CaCl2. […] The reagents and homogenate were mixed on ice, and the reaction was initiated by transferring the mixture to a water bath at 37°C. Following a 30-min incubation, the reaction was stopped by transferring the reaction vessel to a bath of boiling water for 3 min. After cooling on ice, 20 μL of a 1 mg/mL solution of C. atrox snake venom was added to the reaction mixture, and the mixture was incubated at 37°C for 10 min. Unreacted [^3H]-cAMP or [^3H]-cGMP was removed by the addition of 500 μL of a 1-in-1 Tris-HCl (40 mM) buffer suspension of Dowex resin (1 × 8-200) with incubation on ice for 30 min. […]

The nature of data set [1]: Solubility limit of S-petasin in the binding assay. It counts as physicochemical. Particulars: reaction buffer of binding assay, aqueous buffer; read-out: Highest attainable concentration owing to solubility.
Data set [2] has as its system isolated sensitized guinea pig trachea. The data set is described as follows: OVA-induced tracheal contractions and baseline tension in vitro. The procedure:
Male Hartley guinea pigs (500–600 g) were sensitized by intramuscular injections of 0.7 mL of 5% (w/v) OVA in saline on Days 1, 4 and 43, and in adjuvant on Days 25 and 39 into each thigh, according to a method described by Underwood et al. and modified by us. Three days after the last injection, sensitized guinea pigs were sacrificed by cervical dislocation, and their tracheas removed. Each trachea was cut into six segments. Each segment consisted of three cartilage rings. All segments were cut open opposite the trachealis. […] Tissues were suspended in normal Krebs solution under an initial tension of 1.5 g and allowed to equilibrate for at least 1 h with washing at 15-min intervals. After the tissues were precontracted with KCl (60 mM) and washed with normal Krebs solution, OVA (0.1–100 μg/mL) was cumulatively added, and contractions were allowed to reach a steady state at each concentration. […] Therefore, the log concentration-response curves of OVA were constructed in the absence and presence of S-petasin. The tension of the precontraction induced by KCl was set as 100%.

A further data set has as its system PDE1. As to the kind of experiment: Inhibition of PDE1 activity (two-step radioenzymatic assay). Particulars: mean ± SEM (n); read-out: IC50 on PDE isozyme 1. It counts as biochemical, guinea pig. The protocol:
Activities of PDE1–5, partially separated from guinea pig lungs and hearts according to the method described by Ko et al., were measured with a two-step procedure according to the method of Thompson and Appleman, using cAMP with [^3H]-cAMP or cGMP with [^3H]-cGMP as substrates. The enzyme pμreparation (25 μL) was incubated for 30 min at 37°C in a total assay volume of […] containing 50 mM Tris-HCl (pH 7.4), 3 mM MgCl2, 1 mM dithiothreitol, 0.05% BSA, 1 μM cAMP with 0.2 μCi [^3H]-cAMP as a substrate alone or in the presence of 0.1 units calmodulin with 10 μM CaCl2 or 5 μM cGMP, and 1 μM cGMP with 0.2 μCi [^3H]-cGMP as another substrate alone or in the presence of 0.1 units calmodulin with 10 μM CaCl2. In tests of enzyme inhibition, the reaction mixture contained 10 μL of vehicle or inhibitors, at various concentrations of S-petasin or selective PDE1–5 inhibitors, such as vinpocetin [22], EHNA [23], milrinone, Ro 20-1724 [25] and zaprinast, as reference drugs. The reagents and homogenate were mixed on ice, and the reaction was initiated by transferring the mixture to a water bath at 37°C. Following a 30-min incubation, the reaction was stopped by transferring the reaction vessel to a bath of boiling water for 3 min. After cooling on ice, 20 μL of a 1 mg/mL solution of C. atrox snake venom was added to the reaction mixture, and the mixture was incubated at 37°C for 10 min. […]

Another data set deals with PDE4. The data set is described as follows: Inhibition of PDE4 activity and Lineweaver-Burk analysis. It counts as biochemical, guinea pig. The protocol: Activities of PDE1–5, partially separated from guinea pig lungs and hearts according to the method described by Ko et al., were measured with a two-step procedure according to the method of Thompson and Appleman, using cAMP with [^3H]-cAMP or cGMP with [^3H]-cGMP as substrates. The enzyme pμreparation (25 μL) was incubated for 30 min at 37°C in a total assay volume of […] containing 50 mM Tris-HCl (pH 7.4), 3 mM MgCl2, 1 mM dithiothreitol, 0.05% BSA, 1 μM cAMP with 0.2 μCi [^3H]-cAMP as a substrate alone or in the presence of 0.1 units calmodulin with 10 μM CaCl2 or 5 μM cGMP, and 1 μM cGMP with 0.2 μCi [^3H]-cGMP as another substrate alone or in the presence of 0.1 units calmodulin with 10 μM CaCl2. In tests of enzyme inhibition, the reaction mixture contained 10 μL of vehicle or inhibitors, at various concentrations of S-petasin or selective PDE1–5 inhibitors, such as vinpocetin [22], EHNA [23], milrinone, Ro 20-1724 [25] and zaprinast, as reference drugs. The reagents and homogenate were mixed on ice, and the reaction was initiated by transferring the mixture to a water bath at 37°C. Following a 30-min incubation, the reaction was stopped by transferring the reaction vessel to a bath of boiling water for 3 min. After cooling on ice, 20 μL of a 1 mg/mL solution of C. atrox snake venom was added to the reaction mixture, and the mixture was incubated at 37°C for 10 min. Unreacted [^3H]-cAMP or [^3H]-cGMP was removed by the addition of 500 μL of a 1-in-1 Tris-HCl (40 mM) buffer suspension of Dowex resin (1 × 8-200) with incubation on ice for 30 min. Each tube was then centrifuged for 2 min at 3700 g, and 150 μL of the supernatant was removed for liquid scintillation counting. Less than 10% of the tritiated cyclic nucleotide was hydrolyzed in this assay. The total protein in each fraction used was assayed according to the method described by Bradford. The PDE activities are shown as nmol/mg/min in the Lineweaver-Burk analysis.

On to `C=C(C)[C@@H]1C[C@@]2(C)C(=CC1=O)CC[C@@H](OC(=O)/C=C\SC)[C@@H]2C` [S-Petasin], for which the IC50 at PDE5 is more than 100 µM; with PDE1, more than 100 µM; in the data set on PDE4 (mean ± SEM (n), read-out: IC50 on PDE isozyme 4 (taken as PDE4L value)), 17.5 µM. Further, in data set [1], the solubility was not above 300 µM. Further, the “OVA (100 μg/mL)-induced contractions” value in data set [2] (30–100 μM, 15 min preincubation) is “did not significantly inhibit”. Also, the Baseline tension entry in data set [2] (30–300 μM) was “concentration-dependently and significantly relaxed”. The Ki on PDE4 (Lineweaver-Burk analysis, cAMP substrate, read-out: Ki on PDE isozyme 4) was found to be 18.1 ± 1.7 µM. The “Mode of inhibition of PDE4 activity” value with PDE4 (Lineweaver-Burk analysis, S-petasin 3–30 μM, Ro 20-1724 1–10 μM) is “competitively inhibited”.

The values above are taken from PMC3094704, “S-Petasin, the Main Sesquiterpene of Petasites formosanus, Inhibits Phosphodiesterase Activity and Suppresses Ovalbumin-Induced Airway Hyperresponsiveness” (Evidence-based Complementary and Alternative Medicine : eCAM, 2011).
